Read-outs that look alike come from different tables or passages of the source. One block for each compound: values may come before it.
What was measured:
CDK2/cyclin A = CDK2/cyclin A (Homo sapiens, UniProt P24941); experiment: Kinase assay CDK2/cyclin A; assay type: biochemical
Method in brief: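 Each kinase phosphorylates a suitable polypeptide using 32P-labelled ATP (100 μM) at 30° C. Filtered, washed product is counted.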

[1] = molecular target: ERK2 (extracellular-signal-regulated kinase 2) (Homo sapiens, UniProt P28482); experiment: Kinase assay ERK2; assay type: biochemical; settings: Table 3 selectivity panel; read-out: Kinase specificity IC50 ERK2
Sequence of ERK2 (extracellular-signal-regulated kinase 2) (P28482 whole entry, species assumed): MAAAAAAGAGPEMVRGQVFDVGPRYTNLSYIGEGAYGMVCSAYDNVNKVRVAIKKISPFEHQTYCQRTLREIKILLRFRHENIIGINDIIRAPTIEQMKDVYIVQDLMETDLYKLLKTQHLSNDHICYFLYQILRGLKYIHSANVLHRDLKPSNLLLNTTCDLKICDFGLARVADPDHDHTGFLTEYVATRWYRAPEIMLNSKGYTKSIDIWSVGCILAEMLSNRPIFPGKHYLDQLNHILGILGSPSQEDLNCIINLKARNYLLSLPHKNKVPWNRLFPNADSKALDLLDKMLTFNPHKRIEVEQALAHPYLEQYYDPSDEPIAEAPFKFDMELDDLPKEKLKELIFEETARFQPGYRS
Experimental: (§1) Kinase assays. […] This was achieved by measurement of incorporation of radioactive phosphate from ATP into appropriate polypeptide substrates. Recombinant protein kinases and kinase complexes were produced or obtained commercially. Assays were performed using 96-well plates and appropriate assay buffers (typically 25 mM β-glycerophosphate, 20 mM MOPS, 5 mM EGTA, 1 mM DTT, 1 mM […], pH 7.4), into which were added 2-4 μg of active enzyme with appropriate substrates. The reactions were initiated by addition of Mg/ATP mix (15 mM MgCl2+100 μM ATP with 30-50 kBq per well of [γ-^32P]-ATP) and mixtures incubated as required at 30° C. Reactions were stopped on ice, followed by filtration through p81 filterplates or GF/C filterplates (Whatman Polyfiltronics, Kent, UK). After washing 3 times with 75 mM aq orthophosphoric acid, plates were dried, scintillant added and incorporated radioactivity measured in a scintillation counter (TopCount, Packard Instruments, Pangbourne, Berks, UK). Compounds for kinase assay were made-up as 10 mM stocks in DMSO and diluted into 10% DMSO inrassay buffer.

[2] = molecular target: Akt/PKB (protein kinase B) (Homo sapiens, UniProt P31749); experiment: Kinase assay Akt/PKB; assay type: biochemical; settings: Table 3 selectivity panel; read-out: Kinase specificity IC50 Akt/PKB
Sequence of Akt/PKB (protein kinase B) (P31749 whole entry): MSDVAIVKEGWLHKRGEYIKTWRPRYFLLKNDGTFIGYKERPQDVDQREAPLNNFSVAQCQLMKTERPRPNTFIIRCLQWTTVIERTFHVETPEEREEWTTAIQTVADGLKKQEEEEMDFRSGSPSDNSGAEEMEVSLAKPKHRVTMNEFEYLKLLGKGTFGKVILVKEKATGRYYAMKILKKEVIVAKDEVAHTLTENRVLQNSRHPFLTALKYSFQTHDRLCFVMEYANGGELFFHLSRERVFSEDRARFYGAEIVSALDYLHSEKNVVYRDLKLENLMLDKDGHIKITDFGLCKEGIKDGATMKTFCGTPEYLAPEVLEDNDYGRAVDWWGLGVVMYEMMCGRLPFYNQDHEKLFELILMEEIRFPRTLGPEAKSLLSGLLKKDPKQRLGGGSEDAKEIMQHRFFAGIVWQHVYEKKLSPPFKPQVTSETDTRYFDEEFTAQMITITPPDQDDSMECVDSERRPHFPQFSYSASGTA
Experimental: as §1

Hela = experiment: 72-h MTT cytotoxicity assay Hela; assay type: cell-based; settings: Homo sapiens, Table 5, Cervix
Experimental: (§2) MTT cytotoxicity assay. […] Standard 72-h MTT (thiazolyl blue; 3-[4,5-dimethylthiazol-2-yl]-2,5-diphenyltetrazolium bromide) assays were performed (Haselsberger, K.; Peterson, D. C.; Thomas, D. G.; Darling, J. L. Anti Cancer Drugs 1996, 7, 331-8; Loveland, B. E.; Johns, T. G.; Mackay, I. R.; Vaillant, F.; Wang, Z. X.; Hertzog, P. J. Biochemistry International 1992, 27, 501-10). In short: cells were seeded into 96-well plates according to doubling time and incubated overnight at 37° C. Test compounds were made up in DMSO and a 1/3 dilution series prepared in 100 μL cell media, added to cells (in triplicates) and incubated for 72 ho at 37° C. MTT was made up as a stock of 5 mg/mL in cell media and filter-sterilised. Media was removed from cells followed by a wash with 200 μL PBS.
(§3) MTT solution was then added at 20 μL per well and incubated in the dark at 37° C. for 4 h. MTT solution was removed and cells again washed with 200 μL PBS. MTT dye was solubilised with 200 μL per well of DMSO with agitation.

Lovo = experiment: 72-h MTT cytotoxicity assay Lovo; assay type: cell-based; settings: Homo sapiens, Table 5, Colon
Experimental: as §2, §3

SKUT-1 = experiment: 72-h MTT cytotoxicity assay SKUT-1; assay type: cell-based; settings: Homo sapiens, SK-UT-1, 72 h; Table 5; Leiomyosarcoma
Experimental: as §2, §3

CCRF-CEM = experiment: 72-h MTT cytotoxicity assay CCRF-CEM; assay type: cell-based; settings: Homo sapiens, Table 5, Leukemia
Experimental: as §2, §3

Hacat = experiment: 72-h MTT cytotoxicity assay Hacat; assay type: cell-based; settings: Homo sapiens, Table 5, Skin keratinocytes
Experimental: as §2, §3

Messa = experiment: 72-h MTT cytotoxicity assay Messa; assay type: cell-based; settings: Homo sapiens, MES-SA, Table 5, Uterine
Experimental: as §2, §3

Messa-Dx5 = experiment: 72-h MTT cytotoxicity assay Messa-Dx5; assay type: cell-based; settings: Homo sapiens, MES-SA/Dx5, 72 h; Table 5; Uterine
Experimental: as §2, §3

all transformed cells = experiment: 72-h MTT cytotoxicity assay, summary over all transformed cells; assay type: cell-based; settings: Homo sapiens
Experimental: as §2, §3

Hs27 = experiment: 72-h MTT cytotoxicity assay Hs27; assay type: cell-based; settings: Homo sapiens, HS27, 72 h; Table 5; Foreskin fibroblast (non-transformed)
Experimental: as §2, §3

[3] = Compound cytotoxicity in PBMCs (MTS); assay type: cell-based; settings: human, concentration decreasing cell viability by 50%, read-out: PBMC TC50
Experimental: Representative compounds of the present invention were tested for antiviral activity against HIV-1 in human peripheral blood mononuclear cells (PBMCs) using the clinical paediatric HIV strain RoJo or WeJo. PBMCs were cultured under conditions which promote cell survival and HIV replication. Antiviral activity was tested for from 6-9 log10 serial dilutions of a 100 μM compound stock solution in DMSO.
Fresh PBMCs, seronegative for HIV and HBV, were isolated from screened donors (Interstate Blood Bank, Inc. Memphis, Term.). Cells were pelleted/washed 2-3 times by low speed centrifugation and re-suspension in PBS to remove contaminating platelets. […] Banded PBMCs were gently aspirated from the resulting interface and subsequently washed with PBS by low speed centrifugation. After the final wash, cells were enumerated by trypan blue exclusion and re-suspended in RPMI 1640 supplemented with fetal bovine serum (FBS), and L-glutamine, Phytohemagglutinin (PHA-P, Sigma). The cells were allowed to incubate at 37° C. After incubation, PBMCs were centrifuged and resuspended in RPMI 1640 with FBS, L-glutamine, penicillin, streptomycin, gentamycin, and recombinant human IL-2 (R&D Systems, Inc). IL-2 is included in the culture medium to maintain the cell division initiated by the PHA mitogenic stimulation. PBMCs were maintained in this with bi-weekly medium changes until used in the assay protocol. Cells were kept in culture for a maximum of two weeks before being deemed too old for use in assays and discarded. Monocytes were depleted from the culture as the result of adherence to the tissue culture flask.
For the standard PBMC assay, PHA-P stimulated cells from at least two normal donors were pooled, diluted and plated in the interior wells of a 96-well round bottom microplate. Pooling of mononuclear cells from more than one donor was used to minimise the variability observed between individual donors, which results from quantitative and qualitative differences in HIV infection and overall response to the PHA and IL-2 of primary lymphocyte populations. Each plate contained virus/cell control wells (cells plus virus), experimental wells (drug plus cells plus virus) and compound control wells (drug plus media […], necessary for MTS monitoring of cytotoxicity). Since HIV-1 is not cytopathic to PBMCs, this allows the use of the same assay plate for both antiviral activity and cytotoxicity measurements. Test drug dilutions were prepared in microtiter tubes and each concentration was placed in appropriate wells using the standard format. A predetermined dilution of virus stock was placed in each test well (final MOI≅0.1). The PBMC cultures were maintained for seven days following infection at 37° C., 5% CO2. After this period, cell-free supernatant samples were collected for analysis of reverse transcriptase activity and/or HIV p24 content. Following removal of supernatant samples, compound cytotoxicity was measured by addition of MTS to the plates for determination of cell viability. Wells were also examined microscopically and any abnormalities were noted.

[4] = Table 2, read-out: Kinase Inhibition IC50 CDK2 cyclin A
[5] = Table 3 selectivity panel, read-out: Kinase specificity IC50 CDK2/A
[6] = Table 5, average over transformed cell lines, read-out: 72-h MTT IC50 Average (all transformed cells)
[7] = Table 5, median over transformed cell lines, read-out: 72-h MTT IC50 Median (all transformed cells)

Structure (SMILES): CC[C@@H](N)C(=O)Nc1nc(C)c(-c2ccnc(Nc3cccc([N+](=O)[O-])c3)n2)s1 [Compound 16, (2R)-2-Amino-N-{4-methyl-5-[2-(3-nitro-phenylamino)-pyrimidin-4-yl]-thiazol-2-yl}-butyramide]
IC50 (CDK2/cyclin A; [4]): 650 nM
IC50 (CDK2/cyclin A; [5]): 650 nM
IC50 [1]: > 100 µM
IC50 [2]: > 100 µM
IC50 (Hela): 400 nM
IC50 (Lovo): 300 nM
IC50 (SKUT-1): 200 nM
IC50 (CCRF-CEM): 1100 nM
IC50 (Hacat): 1100 nM
IC50 (Messa): 400 nM
IC50 (Messa-Dx5): 100 nM
IC50 (all transformed cells; [6]): 600 nM
IC50 (all transformed cells; [7]): 400 nM
IC50 (Hs27): > 5 µM

IC50 (CDK2/cyclin A; [4]): 5300 nM
Structure (SMILES): Cc1nc(C)c(-c2ccnc(Nc3ccc(NC(=O)CN4CCCC4)cc3)n2)s1 [Compound 53, N-{4-[4-(2,4-Dimethyl-thiazol-5-yl)-pyrimidin-2-ylamino]-phenyl}-2-pyrrolidin-1-yl-acetamide]
CC50 at 7 days [3]: 1.6 µM

Structure (SMILES): Cc1nc(NC(=O)[C@H](N)[C@@H](C)O)sc1-c1ccnc(Nc2cccc([N+](=O)[O-])c2)n1 [Compound 15, (2R,3R)-2-Amino-3-hydroxy-N-{4-methyl-5-[2-(3-nitro-phenylamino)-pyrimidin-4-yl]-thiazol-2-yl}-butyramide]
IC50 (CDK2/cyclin A; [4]): 850 nM
IC50 (CDK2/cyclin A; [5]): 400 nM
IC50 [1]: > 100 µM
IC50 [2]: > 100 µM
IC50 (Hela): 700 nM
IC50 (Lovo): 700 nM
IC50 (SKUT-1): 900 nM
IC50 (CCRF-CEM): 2600 nM
IC50 (Hacat): 1500 nM
IC50 (Messa): 900 nM
IC50 (Messa-Dx5): 400 nM
IC50 (all transformed cells; [6]): 1200 nM
IC50 (all transformed cells; [7]): 900 nM
IC50 (Hs27): 1.7 µM
CC50 at 7 days [3]: 2.4 µM

Structure (SMILES): CCNc1nc(C)c(-c2ccnc(Nc3ccc(N4CCOCC4)cc3)n2)s1 [Compound 4, [4-(2-Ethylamino-4-methyl-thiazol-5-yl)-pyrimidin-2-yl]-(4-morpholin-4-yl-phenyl)-amine]
CC50 at 7 days [3]: 9.4 µM

Structure (SMILES): CNc1nc(C)c(-c2ccnc(Nc3ccc(N4CCOCC4)cc3)n2)s1 [Compound 3, [4-(2-N-Methylamino-4-methyl-thiazol-5-yl)-pyrimidin-2-yl]-(4-morpholinophenyl)-amine]
IC50 [1]: > 100 µM
IC50 [2]: > 100 µM
CC50 at 7 days [3]: > 100 µM

Structure (SMILES): Cc1nc(N)sc1-c1ccnc(Nc2ccc(N3CCOCC3)cc2)n1 [Compound 1, [4-(2-Amino-4-methyl-thiazol-5-yl)-pyrimidin-2-yl]-(4-morpholin-4-yl-phenyl)-amine]
IC50 (Hela): 1800 nM
IC50 (Lovo): 900 nM
IC50 (SKUT-1): 900 nM
IC50 (CCRF-CEM): 900 nM
IC50 (Hacat): 1100 nM
IC50 (Messa): 200 nM
IC50 (Messa-Dx5): 200 nM
IC50 (all transformed cells; [6]): 1100 nM
IC50 (all transformed cells; [7]): 1000 nM
IC50 (Hs27): > 5 µM
CC50 at 7 days [3]: 6.1 µM

Structure (SMILES): CNc1nc(C)c(-c2ccnc(Nc3ccc(N4CCN(Cc5ccccc5)CC4)cc3)n2)s1 [Compound 11, [4-(4-Benzyl-piperazin-1-yl)-phenyl]-[4-(4-methyl-2-methylamino-thiazol-5-yl)-pyrimidin-2-yl]-amine]
IC50 (CDK2/cyclin A; [4]): 2200 nM
IC50 (CDK2/cyclin A; [5]): 2200 nM
IC50 [1]: > 100 µM
IC50 [2]: > 100 µM
IC50 (Hela): 6200 nM
IC50 (Lovo): 2000 nM
IC50 (SKUT-1): 800 nM
IC50 (CCRF-CEM): 500 nM
IC50 (Hacat): 1000 nM
IC50 (Messa): 100 nM
IC50 (Messa-Dx5): 200 nM
IC50 (all transformed cells; [6]): 1600 nM
IC50 (all transformed cells; [7]): 1100 nM
IC50 (Hs27): 19 µM

Reference: patent US7432260B2, “Pyrimidine compounds” (Cyclacel Limted, priority 2002, dated 2008)
